These results are taken from article PMC3914206.

Structures are written as SMILES.

What all share (assay type): binding
Holding throughout (conditions): Compound Concentration 10 µM

For experiment [1], the target named is T1, panel of 442 kinases (Homo sapiens, UniProt P29322).
T1 construct: purchased KINOMEscan
T1 sequence (P29322 28-1005): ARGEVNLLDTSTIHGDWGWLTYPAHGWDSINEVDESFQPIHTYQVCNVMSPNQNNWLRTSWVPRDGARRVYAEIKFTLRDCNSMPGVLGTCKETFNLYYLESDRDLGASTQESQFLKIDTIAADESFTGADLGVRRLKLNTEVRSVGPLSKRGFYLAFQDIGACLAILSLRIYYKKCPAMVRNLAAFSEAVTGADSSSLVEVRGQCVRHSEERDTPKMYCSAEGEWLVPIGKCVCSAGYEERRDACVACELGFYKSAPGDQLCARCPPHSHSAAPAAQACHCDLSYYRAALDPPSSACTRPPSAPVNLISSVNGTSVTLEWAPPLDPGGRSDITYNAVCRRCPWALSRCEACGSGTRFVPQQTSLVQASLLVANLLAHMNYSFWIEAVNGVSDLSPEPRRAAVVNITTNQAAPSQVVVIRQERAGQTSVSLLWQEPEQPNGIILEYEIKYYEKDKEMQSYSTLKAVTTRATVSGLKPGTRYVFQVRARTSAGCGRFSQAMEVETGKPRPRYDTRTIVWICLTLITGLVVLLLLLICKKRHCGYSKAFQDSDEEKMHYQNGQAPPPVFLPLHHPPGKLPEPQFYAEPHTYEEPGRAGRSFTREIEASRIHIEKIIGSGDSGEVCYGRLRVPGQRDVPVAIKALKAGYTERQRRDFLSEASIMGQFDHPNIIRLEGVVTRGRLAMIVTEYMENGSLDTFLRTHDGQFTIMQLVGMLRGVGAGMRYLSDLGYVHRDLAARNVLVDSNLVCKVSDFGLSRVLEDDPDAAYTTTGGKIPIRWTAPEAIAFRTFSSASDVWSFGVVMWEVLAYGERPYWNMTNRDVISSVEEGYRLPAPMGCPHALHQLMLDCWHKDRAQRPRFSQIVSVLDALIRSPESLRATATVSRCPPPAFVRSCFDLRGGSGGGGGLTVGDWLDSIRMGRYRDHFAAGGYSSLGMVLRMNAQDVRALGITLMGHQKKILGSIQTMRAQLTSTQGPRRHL
The text has this:
(§1) We assessed the selectivity of members of this scaffold using the KINOMEscan methodology across a near comprehensive panel of 442 kinases [[18,27]].

Experiment [2] has as its target T2, panel of 442 kinases (Homo sapiens, UniProt P00533, DEL752-759).
T2 construct: purchased KINOMEscan
Description: as §1

Experiment [3] addresses T3, panel of 442 kinases (Homo sapiens, UniProt Q9HC98).
T3 construct: purchased KINOMEscan
Description: as §1

T3 sequence (Q9HC98 whole entry): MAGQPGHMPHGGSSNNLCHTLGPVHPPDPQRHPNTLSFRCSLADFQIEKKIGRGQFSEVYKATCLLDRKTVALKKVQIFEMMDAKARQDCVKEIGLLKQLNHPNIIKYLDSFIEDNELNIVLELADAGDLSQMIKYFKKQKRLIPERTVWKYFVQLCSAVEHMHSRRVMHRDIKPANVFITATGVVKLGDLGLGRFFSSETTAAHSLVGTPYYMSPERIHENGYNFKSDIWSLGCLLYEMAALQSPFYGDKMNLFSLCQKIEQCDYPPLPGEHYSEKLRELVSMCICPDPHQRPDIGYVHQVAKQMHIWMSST
T2 sequence (P00533 with tags, fused parts or gaps DEL752-759): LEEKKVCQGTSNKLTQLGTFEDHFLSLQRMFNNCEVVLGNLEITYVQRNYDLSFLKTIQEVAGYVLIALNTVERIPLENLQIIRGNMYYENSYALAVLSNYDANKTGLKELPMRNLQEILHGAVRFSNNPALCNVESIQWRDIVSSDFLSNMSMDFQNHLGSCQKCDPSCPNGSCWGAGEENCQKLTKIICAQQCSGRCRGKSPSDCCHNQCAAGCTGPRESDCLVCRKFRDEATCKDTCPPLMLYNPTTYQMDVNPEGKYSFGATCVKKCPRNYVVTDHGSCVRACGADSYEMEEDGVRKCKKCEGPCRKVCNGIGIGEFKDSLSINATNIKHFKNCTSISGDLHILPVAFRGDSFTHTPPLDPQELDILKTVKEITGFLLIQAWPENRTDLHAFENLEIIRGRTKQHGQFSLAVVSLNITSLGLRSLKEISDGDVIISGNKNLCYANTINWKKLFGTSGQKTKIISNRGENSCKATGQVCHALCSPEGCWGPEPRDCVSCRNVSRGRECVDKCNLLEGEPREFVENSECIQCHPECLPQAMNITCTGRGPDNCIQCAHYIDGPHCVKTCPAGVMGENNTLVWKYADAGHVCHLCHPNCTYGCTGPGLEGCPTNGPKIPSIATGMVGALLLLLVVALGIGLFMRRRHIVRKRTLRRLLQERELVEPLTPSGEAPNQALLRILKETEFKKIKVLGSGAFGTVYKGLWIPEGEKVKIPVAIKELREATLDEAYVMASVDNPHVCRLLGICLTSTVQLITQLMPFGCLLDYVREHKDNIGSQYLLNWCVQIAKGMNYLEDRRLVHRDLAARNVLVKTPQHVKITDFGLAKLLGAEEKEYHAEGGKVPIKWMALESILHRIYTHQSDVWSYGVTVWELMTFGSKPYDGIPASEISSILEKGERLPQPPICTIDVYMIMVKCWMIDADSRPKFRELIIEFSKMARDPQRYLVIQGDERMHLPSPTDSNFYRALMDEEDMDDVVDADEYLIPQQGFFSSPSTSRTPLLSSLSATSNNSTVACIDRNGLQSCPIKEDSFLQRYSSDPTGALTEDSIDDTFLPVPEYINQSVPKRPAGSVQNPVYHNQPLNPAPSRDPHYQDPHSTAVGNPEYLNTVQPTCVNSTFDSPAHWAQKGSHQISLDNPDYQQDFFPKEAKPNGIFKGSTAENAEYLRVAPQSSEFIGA

Consider `COc1cc(C(=O)N2CCC(N3CCN(C)CC3)CC2)ccc1Nc1ncc2c(n1)N(C)c1ccccc1C(=O)N2C` [15 (LRRK2-IN-1)], for which the “KINOMEscan: EPHA8” value in experiment [1] is reported as 80. Besides, in experiment [2], the “KINOMEscan: EGFR(S752-I759del)” value is 99. In addition, the “KINOMEscan: NEK6” value in experiment [3] is reported as 76.

Turning to `COc1cc(C(=O)N2CCC(N3CCN(C)CC3)CC2)ccc1Nc1ncc2c(n1)N1CCc3cccc(c31)C(=O)N2C` [Compound 24], the “KINOMEscan: EPHA8” value in experiment [1] was found to be 72. In addition, the “KINOMEscan: EGFR(S752-I759del)” value in experiment [2] came to 80. Besides, the “KINOMEscan: NEK6” value in experiment [3] amounted to 56.

`COc1cc(C(=O)N2CCC(N3CCN(C)CC3)CC2)ccc1Nc1ncc2c(n1)N(C1CCCC1)c1ccccc1C(=O)N2C` [Compound 25, 11-cyclopentyl-2-((2-methoxy-4-(4-(4-methylpiperazin-1-yl)piperidine-1-carbonyl)phenyl)amino)-5-methyl-5H-benzo[e]pyrimido[5,4-b][1,4]diazepin-6(11H)-one]: the “KINOMEscan: EPHA8” value in experiment [1] stood at 97. Further, the “KINOMEscan: EGFR(S752-I759del)” value in experiment [2] stood at 80. Moreover, the “KINOMEscan: NEK6” value in experiment [3] is 100.

Regarding `CCOc1cc(C(=O)N2CCC(N3CCN(C)CC3)CC2)ccc1Nc1ncc2c(n1)N(C1CCCC1)c1ccccc1C(=O)N2C` [Compound 26], the “KINOMEscan: EPHA8” value in experiment [1] was 100. Moreover, the “KINOMEscan: EGFR(S752-I759del)” value in experiment [2] was determined as 86. Besides, the “KINOMEscan: NEK6” value in experiment [3] was found to be 100.
